Source: paper doi:10.1101/2022.12.23.521429v4, “Structural perspective on the design of selective DYRK1B inhibitors” (biorxiv, 2025)

Experiments:
[1] = target: T1, DYRK1A kinase domain (126-490) (Homo sapiens, UniProt Q13627); assay: kinase activity assay; format: biochemical; conditions: co-substrate and buffer of the KM determination not told
T1 construct: also printed 124-490 in b15 and 126-489), non-cleavable C-terminal His-tag kept; E. coli LOBSTR; Tyr321 phosphorylated; b63 prints Q9Y463 (swapped with DYRK1B)

[2] = target: T2, DYRK1B kinase domain (78-442) (Homo sapiens, UniProt Q9Y463); assay: Sypro Orange thermal shift assay; format: binding; conditions: read-out: shift in Tm
T2 construct: kinase domain 78-442, C-terminal TEV site and His-tag (ENLYFQ*GHHHHHH), His-tag cleaved by TEV; E. coli LOBSTR; Tyr273 autophosphorylated

Km [1] [µM]	SMILES	ΔTm at 10 µM [2] [°C]
118	Nc1ncnc2c1ncn2[C@@H]1O[C@H](COP(=O)(O)OP(=O)(O)OP(=O)(O)O)[C@@H](O)[C@H]1O [ATP]	
	COc1cc(N2CCN(C)CC2)ccc1Nc1nccc(-c2cn(C)c3cnccc23)n1 [AZ191]	12
